Data from patent publication US20090105206A1, “Copper Melphalan And Copper Tegafur As Anti-Tumor Agents” (priority 2004, published 2009).
Several values for one entry are separate records, joined by “and”; a condition that tells them apart may be missing. Equal values may be shown once.

Key:
OVCAR-3/P19 tumor cells = assay: Example 6: NOD/SCID mice s.c. injected with OVCAR-3 tumor cells; format: in vivo, female NOD/SCID mice
Description: 2×10^6 OVCAR-3/P19 tumor cells were s.c. injected into female NOD/SCID mice. The mice were treated as follows.
The treatment began with a mean tumor volume of 80 mm^3.
To level possible differences in tumor volume at the start of treatment in the individual groups and to make evident differences owing to the low absolute volumes in the treatment groups, the relative tumor volumes (RTV) have been analyzed. The relative tumor volume results from the ratio of the volume on day x and the tumor volume at the start of treatment in the same test animal. […] The tumor growth was stopped in group 2 after just 7 days. After 3 days of constant tumor volume a tumor regression began from day 30 (10th day of treatment) in the test animals treated with copper-melphalan.

[1] = system: murine renal cell carcinoma (RENCA) tumor cells applied orthotopically; assay: Example 5: orthotopic RENCA model, late treatment from Day 10; format: in vivo, Balb/c mouse; conditions: for Kidney weight / Lung weight / Number of intestinal lymph node metastases / Number of lung metastases (late treatment day 10-14) / Kidney volume: day 18, individual animals; for Vessel density, later start of treatment day 10-14: individual sections
Description: (§1) The tests were carried out on a murine renal cell carcinoma model (RENCA) of the Balb/c mouse. The tumor cells were applied orthotopically into the left-hand renal capsule of syngenic mice. The effect of the treatment carried out on a primary tumor (in the implanted kidney), metastases (predominantly in the lungs, spleen and intestinal lymph nodes) and vessel density were investigated.
(§2) After anesthesia by means of isoflurane narcosis (O2— flow approx. 2.0 l with 0.5-1.5% isoflurane) a small incision was made in the mouse's left flank. The kidney was prepared and presented free from the peritoneum. A 27 G needle was introduced via the lower kidney pole through to below the renal capsule with visual inspection, and […] in 70 μl aliquots respectively applied once. The occurrence of a visible liquid-filled blister between kidney parenchyma and renal capsule and the discoloration of the kidneys were regarded as criteria for successful application. The kidney was subsequently reset and the incision into the abdominal wall closed by means of fascia stitches and cutaneous stitches with absorbable stitching material. Five test groups with ten animals respectively were formed. Group 1 negative control, group 2 positive control melphalan (Glaxo), group 3 and 4 MOC melphalan 2.5 mg/kg and 5 mg/kg. In the case of group 5 an antiangiogenically effective substance was applied as the positive control. The start of treatment was fixed for day 1 post op. for Cu(melphalan)2. Treatment was carried out daily up to day seven (see treatment model). The test was ended after 19 days since, owing to their size, the control tumors required termination for ethical reasons.
(§3) After selecting the animals the tissues to be examined were quickly transferred into liquid nitrogen and then frozen at −80° C. 5-10 μm thick sections were prepared from the tissue parts. The preparations were immunohistochemically dyed with an anti-CD31 antibody (Pecam-1) and the number of vessels in the control and treatment groups counted. Two sections of each tumor with three areas respectively were used for counting the vessels.
The study report matches that of Example 4, differing only in terms of treatment intervals and dose groups. Four test groups with ten animals respectively were formed. Group 1 negative control, group 2 positive control melphalan (Glaxo), groups 3 and 4 Cu(melphalan)2 5 mg/kg and 7.5 mg/kg. The start of treatment was fixed for day 10 post op. for all groups. The intention was for daily treatment from day 10 until day 17 (see treatment model). Owing to toxicities the treatment period was reduced to day 10-14. After 18 days the test was ended since, owing to their size, the control tumors required termination for ethical reasons.
• The implantation day was counted as day 0. • Duration of the test 18 days. • Number of animals at beginning of test 40; no animals died during the op.

[2] = system: murine renal cell carcinoma (RENCA) tumor cells applied orthotopically; assay: Example 4: orthotopic renal cell carcinoma model (RENCA), treatment Day 1-7; primary tumor, metastases, vessel density (anti-CD31); format: in vivo, Balb/c mouse; conditions: for Kidney weight / Lung weight / Number of intestinal lymph node metastases / Number of lung metastases: day 19; for Kidney weight / Lung weight / Number of intestinal lymph node metastases / Number of lung metastases / Kidney volume: individual animals; for Kidney volume: test ended day 19
Description: as §1, §2
• The implantation day was counted as day 0. • Duration of the test 19 days. • Number of animals at beginning of test 50, no animals died during the op.
as §3

[3] = Gr. 3, 7.5 mg/kg copper-melphalan vs control (PBS)
[4] = Gr. 3, 7.5 mg/kg copper-melphalan vs control (PBS), baseline
[5] = Cu(melphalan)2 8.8 μmol/kg (5 mg/kg) i.p. Day 10-14
[6] = Cu(melphalan)2 13.2 μmol/kg (7.5 mg/kg/d) i.p. Day 10-14
[7] = Cu(melphalan)2 4.4 μmol/kg (2.5 mg/kg) i.p. Day 1-7
[8] = Cu(melphalan)2 8.8 μmol/kg (5 mg/kg/d) i.p. Day 1-7
[9] = dose of 2.5 mg/kg and 5 mg/kg, Day 1-7 i.p.

## N[C@@H](Cc1ccc(N(CCCl)CCCl)cc1)C(=O)[O-].N[C@@H](Cc1ccc(N(CCCl)CCCl)cc1)C(=O)[O-].O.O.[Cu+2] [Cu(melphalan)2]
OVCAR-3/P19 tumor cells; [3]
  Vol Day 30, mean in % of group 1: 37.6%
  Vol Day 30, median in % of group 1: 50.9%
  Vol Day 37, mean in % of group 1: 9.3%
  Vol Day 37, median in % of group 1: 7.0%
OVCAR-3/P19 tumor cells; [4]
  RTV Day 20, mean in % of group 1: 100.0%
  RTV Day 20, median in % of group 1: 100.0%
  Vol Day 20, mean in % of group 1: 81.3%
  Vol Day 20, median in % of group 1: 113.3%
OVCAR-3/P19 tumor cells; Mann-Whitney rank sum test, mean tumor volume p=0.021, mean RTV p=0.01
  statistical comparison of effectiveness with melphalan at end of treatment (day 37): statistically significant higher degree of effectiveness
[1]; [5]
  Kidney weight: 1.70 gr and 1.78 gr (2×) and 1.88 gr and 1.23 gr and 0.75 gr and 1.56 gr
  Lung weight: 0.11 gr (2×) and 0.14 gr and 0.15 gr and 0.13 gr (2×) and 0.21 gr
  Number of intestinal lymph node metastases: 20 and 40 and 36 and 12 and 64 and 51 and 75
  Number of lung metastases (late treatment day 10-14): 28 and 0 (2×) and 21 and 345 and 431 and 750
  Vessel density, later start of treatment day 10-14: 44 (2×) and 38 and 34 and 56 (2×) and 46 and 26 and 51 and 72 and 25 and 35 and 40 and 31
[1]; Cu(melphalan)2 8.8 μmol/kg (5 mg/kg) i.p. from Day 10 (planned 10-17, reduced to 10-14)
  Kidney volume: 3.12 cm^3 and 2.60 cm^3 and 2.63 cm^3 and 2.08 cm^3 and 2.90 cm^3 and 1.96 cm^3 and 2.76 cm^3
[1]; [6]
  Kidney weight: 1.37 gr and 2.39 gr and 0.26 gr and 1.90 gr and 1.05 gr and 0.27 gr and 1.92 gr and 0.46 gr and 2.50 gr and 0.74 gr
  Lung weight: 0.11 gr and 0.13 gr (2×) and 0.10 gr
  Number of intestinal lymph node metastases: 0
  Number of lung metastases (late treatment day 10-14): 0 (4×) and 3 and 77 and 750 and 300 and 4 and 10
  Vessel density, later start of treatment day 10-14: 35 (2×) and 52 and 58 and 43 and 48 and 65 and 53
[1]; Cu(melphalan)2 13.2 μmol/kg (7.5 mg/kg/d) i.p. from Day 10 (planned 10-17, reduced to 10-14)
  Kidney volume: 1.96 cm^3 and 3.08 cm^3 and 0.60 cm^3 and 2.60 cm^3 and 1.98 cm^3 and 0.91 cm^3 and 3.06 cm^3 and 1.22 cm^3 and 3.33 cm^3 and 1.68 cm^3
[1]; dose of 8.8 μmol/kg, Day 10-14
  antiangiogenic effect (vessel density): significantly antiangiogenic
[1]; dose of 13.2 μmol/kg, Day 10-14
  anti-metastatic effect, lung metastases and lymph node metastases: significant anti-metastatic effect
[1]; dose of both 8.8 μmol/kg and 13.2 μmol/kg, Day 10-14
  anti-tumoral effect against the primary tumor: significant anti-tumoral effect
[2]; [7]
  Kidney weight: 0.78 gr and 2.00 gr and 0.81 gr and 0.38 gr and 1.58 gr and 1.02 gr and 1.28 gr and 1.06 gr and 1.15 gr and 0.29 gr
  Lung weight: 0.20 gr and 0.31 gr and 0.49 gr and 1.07 gr and 0.11 gr (2×) and 0.14 gr and 0.24 gr and 0.13 gr (2×)
  Number of intestinal lymph node metastases: 1 and 2 and 3 and 4 and 0 (5×) and 6
  Number of lung metastases: 378 and >750 (4×) and 9 and 49 and 29 and 3 and 570
  Kidney volume: 1.54 cm^3 and 2.2 cm^3 and 1.2 cm^3 and 0.96 cm^3 and 2.13 cm^3 and 1.53 cm^3 and 1.71 cm^3 (2×) and 1.80 cm^3 and 0.60 cm^3
[2]; [8]
  Kidney weight: 0.79 gr (2×) and 0.19 gr and 1.06 gr and 0.59 gr and 0.85 gr and 0.74 gr and 0.18 gr and 0.29 gr and 0.36 gr
  Lung weight: 0.14 gr (2×) and 0.16 gr and 0.15 gr and 0.11 gr and 0.21 gr and 0.31 gr and 0.22 gr and 0.18 gr and 0.13 gr
  Number of intestinal lymph node metastases: 0 (8×) and 4 and 2
  Number of lung metastases: 11 and 4 (2×) and 162 and 0 and 680 and 16 and 610 and 92 and 7
  Kidney volume: 1.24 cm^3 and 0.44 cm^3 and 1.5 cm^3 and 1.2 cm^3 and 1.33 cm^3 and 1.30 cm^3 and 1.12 cm^3 and 0.6 cm^3 and 0.64 cm^3 and 1.26 cm^3
[2]; approximately quarter-equimolar dose (2.5 mg/kg, 4.4 μmol/kg vs 16.4 μmol/kg melphalan)
  effectiveness compared with melphalan: Effectiveness comparable with melphalan
[2]; approximately semi-equimolar dose (5 mg/kg, 8.8 μmol/kg vs 16.4 μmol/kg melphalan)
  effectiveness compared with melphalan alone: better effectiveness than melphalan alone
[2]; [9]
  anti-metastatic effect, intestinal lymph node metastases: significant anti-metastatic effect
  anti-tumor effect (primary tumor): significant anti-tumor effect
[2]; dose of 5 mg/kg, Day 1-7 i.p.
  anti-metastatic effect, lung metastases: significant anti-metastatic effect
